Assay results published in patent US20150191445A1, “ACYL-HYDRAZONE AND OXADIAZOLE COMPOUNDS, PHARMACEUTICAL COMPOSITIONS CONTAINING THE SAME AND USES THEREOF” (Universidade Federal de Santa Catarina, priority 2011, published 2015).
“Also recorded” adds a separate entry of the source.

How the values were obtained:
REH cells = experiment: MTT cytotoxicity assay, REH cell line; format: cell-based, human; conditions: 48 h of treatment
Protocol: (§1) All compounds were resuspended in DMSO at stock concentration of 20 mM and stored at −20° C. For cytotoxicity testing, the dilutions from the stock solutions were made in culture medium (RPMI-1640 plus 10% of fetal bovine serum, 100 IU/ml penicillin and 100 µg/mL Streptomycin), immediately before being discharged to the cells.
(§2) The REH and Jurkat cell lines were maintained in
(§3) RPMI-1640 medium with 10% FBS (fetal bovine serum), 100 IU/mL penicillin, 100 µg/mL streptomycin and incubated at 37° C. and 5% CO2. Cytotoxicity assays were performed according to the method described in the literature (Pieters, R.; et al. In vitro drug sensitivity of cells from children with leukemia using the MTT assay with improved culture conditions. Blood, 1990, 76, 2327-2336; Pieters, R.; et al. Relation of cellular drug resistance to long-term clinical outcome in childhood acute lymphoblastic leukaemia. Lancet, 1991, 338, 399-403 e Kaspers, G. J.; et al. In vitro cellular drug resistance and prognosis in newly diagnosed childhood acute lymphoblastic leukemia. Blood, 1997, 90, 2723). Cells were resuspended at a concentration of 3.75 10^5 cells/mL in culture medium as described. Eighty microliters of this suspension were seeded into plates with 96 round-bottom wells, containing 20 microliters of different concentrations of compound or vehicle alone. Each treatment was done in triplicate. After 48 hours of incubation at 37° C. and 5% CO2, 20 μL of MTT solution was added (5 mg/mL of 1x PBS), followed by further incubation for 4 hours and 30 minutes at 37° C. and 5% CO2. During these 4 hours and 30 minutes, MTT (yellowish) is metabolized to formazan salt (bluish in color) by living cells. After this, 100 μL sodium dodecyl sulphate (SDS) 10%+0.1M of HCl were added to dissolve the formazan crystals. After incubating overnight, absorbance reading at 570 nm was carried out. The percentage of cells surviving the treatment were calculated relative to the number of surviving cells in the medium without addition of the compounds in question (“negative control”).
(§4) c) Determination of IC: IC50 is defined as the concentration of a compound at which 50% of maximal inhibition is obtained. After reading the absorbance, survival curves were constructed and the values of IC50 were obtained with the GraphPad Prism software.

Jurkat cells = experiment: MTT cytotoxicity assay, Jurkat cell line; format: cell-based, human; conditions: 48 h of treatment, read-out: IC50 T (Jurkat)
Protocol: as §1, §2, §3, §4

[1] = test system: healthy and phytohemagglutinin-stimulated lymphocytes; experiment: MTT assay on normal lymphocytes stimulated with phytohemagglutinin; format: cell-based, human; conditions: for Percentage of survival: 48 h, MTT
Protocol: for the test of compound 07 against normal lymphocytes, blood from human donors was separated in a ficoll gradient and the mononuclear cells were cultivated at 200,000 cells/well, in 80 microliters of RPMI-1640 (containing 10% FBS, 100 IU/mL penicillin and 100 μg/mL streptomycin) and 20 microliters of phytohemagglutinin solution (Cultilab) in each well for stimulation of T lymphocytes. Compound 07 was added in serial dilutions (50%) from 300 to 1 nm. As a control, parallel tests were run with cells from leukemic Jurkat and REH cell lines, and experiments with colchicine with the same concentrations as compound 07. Cytotoxicity was assessed after 48 hours by the MTT method, as described Above.

[2] = test system: human leukemic Jurkat cells and HEK; experiment: Screening of compounds by cell viability assay (MTT) in leukemic cells; format: cell-based; conditions: leukemic cells of Jurkat and HEK strains
Protocol: RPMI-1640 medium with 10% FBS (fetal bovine serum), 100 IU/mL penicillin, 100 µg/mL streptomycin and incubated at 37° C. and 5% CO2. Cytotoxicity assays were performed according to the method described in the literature (Pieters, R.; et al. In vitro drug sensitivity of cells from children with leukemia using the MTT assay with improved culture conditions. Blood, 1990, 76, 2327-2336; Pieters, R.; et al. Relation of cellular drug resistance to long-term clinical outcome in childhood acute lymphoblastic leukaemia. Lancet, 1991, 338, 399-403 e Kaspers, G. J.; et al. In vitro cellular drug resistance and prognosis in newly diagnosed childhood acute lymphoblastic leukemia. Blood, 1997, 90, 2723). Cells were resuspended at a concentration of 3.75 10^5 cells/mL in culture medium as described. Eighty microliters of this suspension were seeded into plates with 96 round-bottom wells, containing 20 microliters of different concentrations of compound or vehicle alone. Each treatment was done in triplicate. […] After incubating overnight, absorbance reading at 570 nm was carried out. The percentage of cells surviving the treatment were calculated relative to the number of surviving cells in the medium without addition of the compounds in question (“negative control”). […]

[3] = target: Trypanosoma cruzi cruzain (Trypanosoma cruzi, UniProt P25779); conditions: cited from earlier work
Sequence of Trypanosoma cruzi cruzain (P25779 123-467): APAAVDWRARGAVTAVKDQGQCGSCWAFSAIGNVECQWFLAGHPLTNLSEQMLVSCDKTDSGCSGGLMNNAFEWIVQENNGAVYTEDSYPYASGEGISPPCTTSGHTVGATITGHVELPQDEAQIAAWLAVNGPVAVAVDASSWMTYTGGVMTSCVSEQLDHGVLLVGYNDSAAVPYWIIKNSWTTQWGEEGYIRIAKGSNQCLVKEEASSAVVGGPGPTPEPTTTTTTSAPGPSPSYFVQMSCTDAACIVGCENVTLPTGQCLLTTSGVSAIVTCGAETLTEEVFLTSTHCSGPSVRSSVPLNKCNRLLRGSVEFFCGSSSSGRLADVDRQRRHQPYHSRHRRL

## COc1cc(C2OC(c3cc(OC)c(OC)c(OC)c3)=NN2C(C)=O)ccc1O (stereo not drawn) [Compound 37]
other
  melting point: 170 to 172 °C

## COc1cc(C(=O)N/N=C/c2cnc[nH]2)cc(OC)c1OC [Compound 17]
other
  melting point: 230 to 231 °C

## COc1cc(C(=O)NN=Cc2ccccc2Cl)cc(OC)c1OC [Compound 11]
REH cells
  IC50: 459 nM
Jurkat cells
  IC50: 189 nM

## COc1cc(C(=O)N/N=C/c2ccc(Cl)c(C(F)(F)F)c2)cc(OC)c1OC [Compound 29]
other
  melting point: 203 to 204 °C

## Colchicine [reference compound]
[1]; 4.6 nM
  Percentage of survival: 109%
[1]; 9.38 nM
  Percentage of survival: 110%
[1]; 18.75 nM
  Percentage of survival: 95%
[1]; 37.5 nM
  Percentage of survival: 84%
[1]; 75 nM
  Percentage of survival: 75%
[1]; 150 nM
  Percentage of survival: 69%
[1]; 300 nM
  toxicity relative to the control / inhibition on the viability of lymphocytes T: 37%
  Percentage of survival: 63%
REH cells
  IC50: 9.5 nM
Jurkat cells
  IC50: 7.7 nM

## COc1cccc(OC)c1/C=N/NC(=O)c1cc(OC)c(OC)c(OC)c1 [Compound 21]
other
  melting point: 245 to 246 °C

## COc1cc(C(=O)N/N=C/c2ccc(Br)cc2O)cc(OC)c1OC [Compound 26]
other
  melting point: 206 to 208 °C

## COc1cc(C(=O)NN=Cc2ccc(Cl)cc2)cc(OC)c1OC [Compound 09]
REH cells
  IC50: 328 nM
Jurkat cells
  IC50: 203 nM

## COc1cc(C(=O)NN=Cc2ccc(Br)cc2)cc(OC)c1OC [Compound 02]
REH cells
  IC50: 33.7 nM
[2]
  antileukemic activity: excellent antileukemic activity; also recorded: significant antileukemic activity
Jurkat cells
  IC50: 31.4 nM
[3]
  inhibitory activity of cruzain: did not show inhibitory activity

## COc1cc(C2OC(c3cc(OC)c(OC)c(OC)c3)=NN2C(C)=O)cc(Br)c1O (stereo not drawn) [Compound 36]
other
  melting point: 177 to 179 °C

## COc1cc(C(=O)NN=Cc2ccc(C)cc2)cc(OC)c1OC [Compound 16]
REH cells
  IC50: 70.6 nM
Jurkat cells
  IC50: 71.5 nM

## COc1cc(C(=O)NN=Cc2ccc3c(c2)OCO3)cc(OC)c1OC [Compound 10]
REH cells
  IC50: 206 nM
Jurkat cells
  IC50: 154 nM

## COc1cc(C2=NN(C(C)=O)C(c3cccc4ccccc34)O2)cc(OC)c1OC (stereo not drawn) [Compound 38]
other
  melting point: 189 to 192 °C

## COc1cc(/C=N/NC(=O)c2cc(OC)c(OC)c(OC)c2)cc(I)c1O [Compound 05]
other
  melting point: 247 to 248 °C
